Structures can show the parent of a compound that is named as a salt. Where two headings read alike, the source gives them in different places.
Legend:
Test in all cases: Antibacterial activity assay (MIC, broth dilution)
Assay type in all cases: cell-based
Enterococcus faecalis = conditions: Enterococcus faecalis, cation-adjusted Mueller Hinton broth, 10% BHI
Enterococcus faecium = conditions: Enterococcus faecium
Protocol: (§1) Determination of the Minimal Inhibitory Concentrations (MIC) by dilution was carried out by broth dilution according to CLSI standards. See CLSI, Methods for Dilution Antimicrobial Susceptibility Tests for Bacteria That Grow Aerobically; Approved Standard—Eighth Edition. 2009, the contents of which are hereby incorporated by reference. Briefly, the minimum inhibitory concentration MIC, is the lowest concentration of a compound that prevents visible growth of a bacterium, in other words at which it has bacteriostatic activity.
For these tests, cation-adjusted Mueller Hinton broth, containing 10% brain-heart infusion (BHI) was used. Concentrations (MIC) are given in μg/mL. The compound was […].
(§2) Compounds were tested for MIC by methods known in the art and described in CLSI, Methods for Dilution Antimicrobial Susceptibility Tests for Bacteria That Grow Aerobically; Approved Standard—Tenth Edition. CLSI document M07-A10. Wayne, Pa.: Clinical and Laboratory Standards Institute, 2015, which is hereby incorporated by reference for these methods.
(§3) Selected compounds also were tested by broth microdilution methods known in the art and described in CLSI, Methods for Dilution Antimicrobial Susceptibility Tests for Bacteria That Grow Aerobically; Approved Standard—Tenth Edition. CLSI document M07-A10. Wayne, Pa.: Clinical and Laboratory Standards Institute, 2015, which is hereby incorporated by reference. Structures of selected compounds in the tables are listed below.

Staphylococcus aureus = conditions: Staphylococcus aureus; Table 16; CLSI M07-A10 dilution method; read-out: MIC S. aureus
Acinetobacter baumannii = conditions: Acinetobacter baumannii; Table 16; CLSI M07-A10 dilution method; read-out: MIC A. baumannii
Protocol: as §1, §2, §3

[1] = read-out: MIC E. faecalis 51299
[2] = read-out: MIC E. faecalis 51575
[3] = read-out: MIC E. faecalis C99707
[4] = cation-adjusted Mueller Hinton broth, 10% BHI, read-out: MIC E. faecium C110914
[5] = cation-adjusted Mueller Hinton broth, 10% BHI, read-out: MIC E. faecium IH79985
[6] = cation-adjusted Mueller Hinton broth, 10% BHI, read-out: MIC E. faecium S1559
[7] = Table 16, CLSI M07-A10 dilution method, read-out: MIC E. faecium

Row | Structure (SMILES) | MIC (Enterococcus faecalis; [1]) | MIC (Enterococcus faecalis; [2]) | MIC (Enterococcus faecalis; [3]) | MIC (Enterococcus faecium; [4]) | MIC (Enterococcus faecium; [5]) | MIC (Enterococcus faecium; [6]) | MIC (Staphylococcus aureus) | MIC (Enterococcus faecium; [7]) | MIC (Acinetobacter baumannii)
1 | Cc1ccc(-c2cc(/C=C/C=C3/N(C)c4ccccc4C3(C)C)[o+]c(-c3ccc(C)cc3)c2)cc1 [Compound 6jc67A, 2,4-di-p-tolyl-6-((1E,3E)-3-(1,3,3-trimethylindolin-2-ylidene)prop-1-en-1-yl)pyrylium boron tetrafluoride salt] | 1 µg/mL | 1 µg/mL | 1 µg/mL | 1 µg/mL | 2 µg/mL | 1 µg/mL | – | – | –
2 | CCc1ccc(-c2cc(/C=C/c3cc4c5c(c3)CCCN5CCC4)[o+]c(-c3ccc(CC)cc3)c2)cc1 [Compound 6jc69-1, (E)-2,4-bis(4-ethylphenyl)-6-(2-(1,2,3,5,6,7-hexahydropyrido[3,2,1-ij]quinolin-9-yl)vinyl)pyrylium boron tetrafluoride salt] | 1 µg/mL | 2 µg/mL | 1 µg/mL | 4 µg/mL | 8 µg/mL | 2 µg/mL | – | – | –
3 | Cc1ccc(-c2cc(/C=C/c3cc4c5c(c3)CCCN5CCC4)[o+]c(-c3ccc(C)c(C)c3)c2)cc1C [Compound 6jc69-3, (E)-2,4-bis(3,4-dimethylphenyl)-6-(2-(1,2,3,5,6,7-hexahydropyrido[3,2,1-ij]quinolin-9-yl)vinyl)pyrylium boron tetrafluoride salt] | 1 µg/mL | 2 µg/mL | 1 µg/mL | 2 µg/mL | 4 µg/mL | 2 µg/mL | – | – | –
4 | CN(C)c1ccc(/C=C/c2cc(-c3ccc(Br)cc3)cc(-c3ccc(Br)cc3)[n+]2C)cc1.[I-] [Compound 9, (E)-2,4-bis(4-bromophenyl)-6-(4-(dimethylamino)styryl)-1-methylpyridin-1-ium iodide] | – | – | – | – | – | – | 1 µg/mL | 8 µg/mL | 8 µg/mL
5 | Cc1ccc(-c2cc(/C=C/c3ccc(N(C)C)cc3)[n+](C)c(-c3ccc(Br)cc3)c2)cc1 [Compound 9a] | – | – | – | – | – | – | 0.5 µg/mL | 4 µg/mL | 4 µg/mL
6 | CN(C)c1ccc(/C=C/c2cc(-c3cccc(Br)c3)cc(-c3ccc(Br)cc3)[n+]2C)cc1 [Compound 9b] | – | – | – | – | – | – | 1 µg/mL | 2 µg/mL | 16 µg/mL
7 | CN(C)c1ccc(/C=C/c2cc(-c3ccc(Cl)cc3)cc(-c3ccc(Br)cc3)[n+]2C)cc1.[I-] [Compound 9c, (E)-2-(4-bromophenyl)-4-(4-chlorophenyl)-6-(4-(dimethylamino)styryl)-1-methylpyridin-1-ium iodide] | – | – | – | – | – | – | 0.5 µg/mL | 4 µg/mL | 16 µg/mL
8 | Cc1ccc(/C=C/c2cc(-c3ccc(Br)cc3)cc(-c3ccc(Br)cc3)[n+]2C)cc1.[I-] [Compound 9d, (E)-2,4-bis(4-bromophenyl)-1-methyl-6-(4-methylstyryl)pyridin-1-ium iodide] | – | – | – | – | – | – | 1 µg/mL | 4 µg/mL | > 64 µg/mL
9 | CC[n+]1c(/C=C/c2ccc(N(C)C)cc2)cc(-c2ccc(Br)cc2)cc1-c1ccc(C)cc1.[I-] [Compound 9e1, (E)-4-(4-bromophenyl)-2-(4-(dimethylamino)styryl)-1-ethyl-6-(p-tolyl)pyridin-1-ium iodide] | – | – | – | – | – | – | 2 µg/mL | 2 µg/mL | 4 µg/mL
10 | CC[n+]1c(/C=C/c2ccc(N(C)CCO)cc2)cc(-c2ccc(Br)cc2)cc1-c1ccc(C)cc1 [Compound 9e2] | – | – | – | – | – | – | 2 µg/mL | 4 µg/mL | 4 µg/mL
11 | CCC[n+]1c(/C=C/c2ccc(N(C)C)cc2)cc(-c2ccc(Br)cc2)cc1-c1ccc(C)cc1.[I-] [Compound 9e3, (E)-4-(4-bromophenyl)-2-(4-(dimethylamino)styryl)-1-propyl-6-(p-tolyl)-pyridin-1-ium iodide] | – | – | – | – | – | – | 0.5 µg/mL | 2 µg/mL | 2 µg/mL
12 | CCN(CC)c1ccc(/C=C/c2cc(-c3ccc(Br)cc3)cc(-c3ccc(Br)cc3)[n+]2C)cc1.[I-] [Compound 9f, (E)-2,4-bis(4-bromophenyl)-6-(4-(diethylamino)styryl)-1-methylpyridin-1-ium iodide] | – | – | – | – | – | – | 1 µg/mL | 2 µg/mL | 32 µg/mL
13 | CN(CCO)c1ccc(/C=C/c2cc(-c3ccc(Br)cc3)cc(-c3ccc(Br)cc3)[n+]2C)cc1.[I-] [Compound 9g, (E)-2,4-bis(4-bromophenyl)-6-(4-((2-hydroxyethyl)(methyl)amino)styryl)-1-methylpyridin-1-ium iodide] | – | – | – | – | – | – | 16 µg/mL | 8 µg/mL | 32 µg/mL
14 | CCN(C)c1ccc(/C=C/c2cc(-c3ccc(Br)cc3)cc(-c3ccc(Br)cc3)[n+]2C)cc1.[I-] [Compound 9h, (E)-2,4-bis(4-bromophenyl)-6-(4-(ethyl(methyl)amino)styryl)-1-methylpyridin-1-ium iodide] | – | – | – | – | – | – | 16 µg/mL | 8 µg/mL | 8 µg/mL
15 | CCN(CC)c1ccc(/C=C/c2cc(-c3ccc(Br)cc3)cc(-c3ccc(Br)cc3)[n+]2C)cc1F.[I-] [Compound 9j, (E)-2,4-bis(4-bromophenyl)-6-(4-(diethylamino)-3-fluorostyryl)-1-methyl-pyridin-1-ium iodide] | – | – | – | – | – | – | 32 µg/mL | 32 µg/mL | 64 µg/mL
16 | CN(CCC#N)c1ccc(/C=C/c2cc(-c3ccc(Br)cc3)cc(-c3ccc(Br)cc3)[n+]2C)cc1.[I-] [Compound 9k, (E)-2,4-bis(4-bromophenyl)-6-(4-((2-cyanoethyl)(methyl)amino)styryl)-1-methylpyridin-1-ium iodide] | – | – | – | – | – | – | 32 µg/mL | 32 µg/mL | 64 µg/mL
17 | CN(C)c1ccc(/C=C/c2cc(-c3ccc(Br)cc3)cc(-c3cccc(Br)c3)[n+]2C)cc1.[I-] [Compound 9l, (E)-2-(3-bromophenyl)-4-(4-bromophenyl)-6-(4-(dimethylamino)styryl)-1-methylpyridin-1-ium iodide] | – | – | – | – | – | – | 8 µg/mL | 4 µg/mL | 16 µg/mL
18 | CCN(CC)c1ccc(/C=C/c2cc(-c3ccc(Br)cc3)cc(-c3cccc(Br)c3)[n+]2C)cc1.[I-] [Compound 9m, (E)-2-(3-bromophenyl)-4-(4-bromophenyl)-6-(4-(diethylamino)styryl)-1-methylpyridin-1-ium iodide] | – | – | – | – | – | – | 8 µg/mL | 4 µg/mL | 8 µg/mL
19 | Cc1ccc(-c2cc(-c3ccc(Cl)cc3)cc(/C=C/c3ccc(N(C)C)cc3)[n+]2C)cc1.[I-] [Compound 9n, (E)-4-(4-chlorophenyl)-2-(4-(dimethylamino)styryl)-1-methyl-6-(p-tolyl)-pyridin-1-ium iodide] | – | – | – | – | – | – | 4 µg/mL | 2 µg/mL | 4 µg/mL
20 | CCN(CC)c1ccc(/C=C/c2cc(-c3ccc(Cl)cc3)cc(-c3ccc(C)cc3)[n+]2C)cc1.[I-] [Compound 9o, (E)-4-(4-chlorophenyl)-2-(4-(diethylamino)styryl)-1-methyl-6-(p-tolyl)pyridin-1-ium iodide] | – | – | – | – | – | – | 32 µg/mL | 16 µg/mL | 16 µg/mL
21 | Cc1ccc(-c2cc(-c3ccc(Cl)cc3)cc(/C=C/c3ccc(N(C)CCC#N)cc3)[n+]2C)cc1.[I-] [Compound 9q, (E)-4-(4-chlorophenyl)-2-(4-((2-cyanoethyl)(methyl)amino)styryl)-1-methyl-6-(p-tolyl)pyridin-1-ium iodide] | – | – | – | – | – | – | 0.25 µg/mL | 2 µg/mL | 16 µg/mL
22 | CCN(CC)c1ccc(/C=C/c2cc(-c3ccc(Br)cc3)cc(-c3ccc(C)cc3C)[n+]2C)cc1.[I-] [Compound 9r, (E)-4-(4-bromophenyl)-2-(4-(diethylamino)styryl)-6-(2,4-dimethylphenyl)-1-methylpyridin-1-ium iodide] | – | – | – | – | – | – | 0.5 µg/mL | 1 µg/mL | 8 µg/mL
23 | Cc1ccc(-c2cc(-c3ccc(Br)cc3)cc(/C=C/c3ccc(N(C)CCO)cc3)[n+]2C)c(C)c1.[I-] [Compound 9t, (E)-4-(4-bromophenyl)-2-(2,4-dimethylphenyl)-6-(4-((2-hydroxyethyl)(methyl)-amino)styryl)-1-methylpyridin-1-ium iodide] | – | – | – | – | – | – | 0.5 µg/mL | 2 µg/mL | 16 µg/mL
24 | Cc1ccc(-c2cc(-c3ccc(Br)cc3)cc(/C=C/c3ccc(N(C)CCC#N)cc3)[n+]2C)cc1C.[I-] [Compound 9u, (E)-4-(4-bromophenyl)-2-(4-((2-cyanoethyl)(methyl)amino)styryl)-6-(3,4-dimethylphenyl)-1-methylpyridin-1-ium iodide] | – | – | – | – | – | – | 2 µg/mL | 8 µg/mL | 16 µg/mL
25 | Cc1ccc(-c2cc(-c3ccc(Br)cc3)cc(/C=C/c3ccc(N(C)C)cc3)[n+]2C)cc1C.[I-] [Compound 9w, (E)-4-(4-bromophenyl)-2-(4-(dimethylamino)styryl)-6-(3,4-dimethylphenyl)-1-methylpyridin-1-ium iodide] | – | – | – | – | – | – | 1 µg/mL | 4 µg/mL | 8 µg/mL

From patent US10941114B2, “Small molecule lipid II inhibitors” (University Of Maryland, Baltimore, priority 2015, dated 2021)
